Laboratory results: ChEMBL document CHEMBL3769367, “Orexin Receptor Antagonists: New Therapeutic Agents for the Treatment of Insomnia” (J Med Chem, 2016)
pIC50, pKi: −log10 of the molar value.

Assays:
[1] = molecular target: T1, Orexin/Hypocretin receptor type 1 (Homo sapiens, UniProt O43613); assay: Binding affinity to OX1R (unknown origin)
T1 sequence (O43613 whole entry): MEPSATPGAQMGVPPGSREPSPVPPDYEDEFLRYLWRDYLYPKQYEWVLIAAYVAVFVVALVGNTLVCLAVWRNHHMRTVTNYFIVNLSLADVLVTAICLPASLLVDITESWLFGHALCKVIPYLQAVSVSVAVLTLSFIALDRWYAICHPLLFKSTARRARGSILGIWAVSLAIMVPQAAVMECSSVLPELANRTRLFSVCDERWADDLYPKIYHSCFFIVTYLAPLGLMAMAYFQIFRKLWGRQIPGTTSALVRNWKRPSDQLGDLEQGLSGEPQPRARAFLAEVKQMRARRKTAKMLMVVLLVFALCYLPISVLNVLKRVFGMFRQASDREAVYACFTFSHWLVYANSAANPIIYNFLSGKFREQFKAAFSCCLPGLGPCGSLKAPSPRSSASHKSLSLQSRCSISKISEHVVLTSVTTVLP

Orexin receptor type 2 [2] = molecular target: T2, Orexin receptor type 2 (Homo sapiens, UniProt O43614); assay: Binding affinity to OX2R (unknown origin)
T2 sequence (O43614 whole entry): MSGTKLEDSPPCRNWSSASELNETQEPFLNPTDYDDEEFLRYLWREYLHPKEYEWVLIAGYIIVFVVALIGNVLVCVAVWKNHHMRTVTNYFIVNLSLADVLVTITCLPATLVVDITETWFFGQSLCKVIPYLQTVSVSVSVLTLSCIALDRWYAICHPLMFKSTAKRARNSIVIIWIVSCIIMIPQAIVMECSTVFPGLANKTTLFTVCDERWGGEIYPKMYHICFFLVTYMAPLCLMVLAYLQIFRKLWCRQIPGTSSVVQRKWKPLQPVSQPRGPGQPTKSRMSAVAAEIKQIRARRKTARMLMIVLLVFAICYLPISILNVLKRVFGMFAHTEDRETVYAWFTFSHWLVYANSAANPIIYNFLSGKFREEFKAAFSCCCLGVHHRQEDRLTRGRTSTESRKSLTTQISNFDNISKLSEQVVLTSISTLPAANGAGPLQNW

[3] = molecular target: T1, Orexin/Hypocretin receptor type 1; assay: Antagonist activity at OX1R (unknown origin)
Orexin receptor type 2 [4] = molecular target: T2, Orexin receptor type 2; assay: Antagonist activity at OX2R (unknown origin)
Homo sapiens [5] = species on record: Homo sapiens; assay: Selectivity ratio of IC50 for OX2R (unknown origin) to IC50 for OX1R (unknown origin)
[6] = Ratio of drug level in CSF to plasma in Wistar rat
Homo sapiens [7] = assay: Effect on sleep parameter in insomnia patient assessed as total sleep time at 50 mg, po by polysomnography; format: functional
[8] = Tmax in human at 1 to 1000 mg administered as single dose; format: ADME, organism-based; conditions: in vivo
Homo sapiens [9] = assay: Effect on sleep parameter in insomnia patient assessed as wake after sleep onset time at 100 mg, po by polysomnography; format: functional
Homo sapiens [10] = assay: Effect on sleep parameter in insomnia patient assessed as total sleep time at 100 mg, po by polysomnography; format: functional
Homo sapiens [11] = assay: Effect on sleep parameter in insomnia patient assessed as wake after sleep onset time at 200 mg, po by polysomnography; format: functional
Canis familiaris = assay: Effect on sleep parameter in po dosed Beagle dog by EEG analysis; format: functional, Canis lupus familiaris
Rattus norvegicus [12] = assay: Effect on sleep parameter in Wistar rat assessed as latency to persistent NREM time at 100 mg/kg, po measured over 12 hrs (reference value: 40 +/- 3 min); format: functional
Homo sapiens [13] = assay: Effect on sleep parameter in insomnia patient assessed as latency to persistent sleep time at 100 mg, po by polysomnography; format: functional
Homo sapiens [14] = assay: Effect on sleep parameter in insomnia patient assessed as total sleep time at 400 mg, po by polysomnography; format: functional
Homo sapiens [15] = assay: Effect on sleep parameter in insomnia patient assessed as sleep efficiency at 400 mg, po by polysomnography; format: functional
Rattus norvegicus [16] = assay: Effect on sleep parameter in Wistar rat assessed as REM sleep duration time at 100 mg/kg, po measured over 12 hrs (reference value: 33 +/- 4 min); format: functional
Homo sapiens [17] = assay: Effect on sleep parameter in insomnia patient assessed as latency to persistent sleep time at 200 mg, po by polysomnography; format: functional
Homo sapiens [18] = assay: Effect on sleep parameter in insomnia patient assessed as total sleep time at 200 mg, po by polysomnography; format: functional
Homo sapiens [19] = assay: Effect on sleep parameter in insomnia patient assessed as sleep efficiency at 100 mg, po by polysomnography; format: functional
Homo sapiens [20] = assay: Effect on sleep parameter in insomnia patient assessed as latency to persistent sleep time at 50 mg, po by polysomnography; format: functional
[21] = Half life in iv dosed Wistar rat; format: ADME, organism-based; conditions: in vivo
[22] = Plasma protein binding in Wistar rat; format: ADME, cell-free; conditions: read-out: PPB (converted)
[23] = Ratio of drug level in brain to plasma in Wistar rat; format: ADME, cell-free; conditions: read-out: BPR
Rattus norvegicus [24] = assay: Effect on sleep parameter in po dosed Wistar rat by EEG analysis; format: functional
Homo sapiens [25] = assay: Effect on sleep parameter in insomnia patient assessed as latency to persistent sleep time at 400 mg, po by polysomnography; format: functional
[26] = Oral bioavailability in Beagle dog; format: ADME, organism-based, Canis lupus familiaris; conditions: in vivo
[27] = Oral bioavailability in human; format: ADME, organism-based; conditions: in vivo
Rattus norvegicus [28] = assay: Effect on sleep parameter in Wistar rat assessed as NREM sleep duration time at 100 mg/kg, po measured over 12 hrs (reference value: 243 +/- 8 min); format: functional
[29] = Elimination half life in human at 1 to 1000 mg administered as single dose; format: ADME, organism-based; conditions: in vivo, read-out: beta t1/2 (converted)
[30] = Oral bioavailability in Wistar rat; format: ADME, organism-based; conditions: in vivo
Rattus norvegicus [31] = assay: Effect on sleep parameter in Wistar rat assessed as latency to persistent REM time at 100 mg/kg, po measured over 12 hrs (reference value: 101 +/- 17 min); format: functional
Homo sapiens [32] = assay: Effect on sleep parameter in insomnia patient assessed as wake after sleep onset time at 400 mg, po by polysomnography; format: functional
Homo sapiens [33] = assay: Effect on sleep parameter in insomnia patient assessed as wake after sleep onset time at 50 mg, po by polysomnography; format: functional
Homo sapiens [34] = assay: Effect on sleep parameter in insomnia patient assessed as sleep efficiency at 200 mg, po by polysomnography; format: functional
Homo sapiens [35] = assay: Effect on sleep parameter in insomnia patient assessed as sleep efficiency at 50 mg, po by polysomnography; format: functional

Question: With Cc1nc(C(=O)N2CCCCC2CCOc2ccc(F)cc2)c(-c2ccccc2)s1 (stereo unspecified) as the molecule, how does the pKi [1] read?
Answer: 8.10

Question: What about the pKi (Orexin receptor type 2 [2]) of the same molecule?
Answer: 8.40

Question: With CCN(CCN(C)c1nc2ccccc2o1)C(=O)c1cc(C)ccc1-n1nccn1 as the molecule, how does the pIC50 [3] read?
Answer: 7.89

Question: And the pIC50 (Orexin receptor type 2 [4])?
Answer: 7.74

Question: For COc1ccc(CC2c3cc(OC)c(OC)cc3CCN2CC(=O)NCc2ccccc2)cc1OC (stereo unspecified), which Ratio IC50 (Homo sapiens [5]) is on record?
Answer: 68

Question: What does the source list for CNC(=O)[C@@H](c1ccccc1)N1CCc2cc(OC)c(OC)cc2[C@@H]1CCc1ccc(C(F)(F)F)cc1 [ALMOREXANT]?
Answer: Kp [6]: 0.002; Time (Homo sapiens [7]): 15.8 min; Tmax [8]: 42 min; Time (Homo sapiens [9]): -20.1 min; Time (Homo sapiens [10]): 21.4 min; Time (Homo sapiens [11]): -34.3 min; Activity (Canis familiaris): 100 mg/kg; Time (Rattus norvegicus [12]): 30 min; Time (Homo sapiens [13]): -10.4 min; Time (Homo sapiens [14]): 69.7 min; Activity (Homo sapiens [15]): 14.4%; Time (Rattus norvegicus [16]): 50 min; Time (Homo sapiens [17]): -10.4 min; Time (Homo sapiens [18]): 39.3 min; Activity (Homo sapiens [19]): 4.6%; Time (Homo sapiens [20]): -5.7 min; half-life [21]: 480 min; fraction unbound [22]: 0.01; Kp [23]: 0.3; Activity (Rattus norvegicus [24]): 30 mg/kg; Time (Homo sapiens [25]): -18 min; bioavailability [26]: 18%; bioavailability [27]: 11%; Time (Rattus norvegicus [28]): 286 min; half-life [29]: 786 min; bioavailability [30]: 8%; Time (Rattus norvegicus [31]): 91 min; Time (Homo sapiens [32]): -54 min; Time (Homo sapiens [33]): -6.7 min; Activity (Homo sapiens [34]): 8.2%; Activity (Homo sapiens [35]): 3.3%
